One assay relates to wild-type HIV-1. Nature of the assay: Spread assay: inhibition of acute HIV-1 infection of T-lymphoid cells (wild-type). In kind it is cell-based. The method, then:
Assays for the inhibition of acute HIV-1 infection of T-lymphoid cells (alternatively referred to herein as the “spread assay”) were conducted in accordance with Vacca, J. P. et al., Proc. Natl. Acad. Sci. USA 1994, 91: 4096. […] The compounds were also tested using a variant of the assay using HIV strains containing the K103N and Y181C mutants, and found to be less than 20-fold shifted relative to wild-type in all cases.

The next assay has as its target HIV-1 RT enzyme (WT) (Human immunodeficiency virus type 1 group M subtype B, UniProt P04585). Nature of the assay: ECL assay for inhibition of HIV reverse transcriptase. To be noted: 100 nM compound; wild-type RT. The assay is classed as biochemical. The method, then: An assay to determine the in vitro inhibition of HIV reverse transcriptase by compounds of the present invention was conducted as follows: HIV-1 RT enzyme (0.1 nM) was combined with inhibitor or DMSO (10%) in assay buffer (50 mM Tris-HCl, pH 7.8, 1 mM dithiothreitol, 6 mM MgCl2, 80 mM KCl, 0.025% CHAPS, 0.1 mM EGTA), and the mixture preincubated for 30 minutes at room temperature in microtiter plates (Corning Costar #3365). 50 μL reaction mixtures were initiated with a combination of primer-template substrate (5 nM final concentration) and dNTPs (0.6 μM dNTPs, 20 nM Ruthenium-dUTP). The heterodimeric nucleic acid substrate was generated by annealing the DNA primer biotinylated-pD500 (obtained from Integrated DNA Technologies) to t500, a 500 nucleotide RNA template created by in vitro transcription (see Shaw-Reid et al., J. Biol. Chem., 278: 2777-2780). After a 90 minute incubation at 37° C., reactions were quenched by 60 μL of quenching buffer containing 0.05 M EDTA, 0.7% BSA, 0.07% Tween-20 and 0.017% sodium azide in PBS. […] The plate is then left at room temperature for 1 hour, after which it is washed 3 times with 200 μL per well of PBS. 150 μL of 1× read buffer T (MSD) is added and the plate read on the Sector Imager 6000 (MSD).

This note sets out measurements from patent US8486975B2, “Non-nucleoside reverse transcriptase inhibitors” (Merck Canada Inc., priority 2010, dated 2013).

On to `Cn1c(Cn2ccc(C(F)(F)F)c(Oc3cc(Cl)cc(C#N)c3)c2=O)n[nH]c1=O` [Example 1-1, 3-Chloro-5-({1-[(4-methyl-5-oxo-4,5-dihydro-1H-1,2,4-triazol-3-yl)methyl]-2-oxo-4-(trifluoromethyl)-1,2-dihydropyridin-3-yl}oxy)benzonitrile], for which, in the assay on wild-type HIV-1, the “Spread (WT) CIC95 (nM) (50% NHS)” value is reported as 19 nM. The inhibition at 0.1 µM on HIV-1 RT enzyme (WT) was 85%.
Turning to `CCn1c(Cn2ccc(C(F)(F)F)c(Oc3cc(Cl)cc(C#N)c3)c2=O)n[nH]c1=O` [Example 2-1, 3-Chloro-5-({1-[(4-ethyl-5-oxo-4,5-dihydro-1H-1,2,4-triazol-3-yl)methyl]-2-oxo-4-(trifluoromethyl)-1,2-dihydropyridin-3-yl}oxy)benzonitrile], in the assay with wild-type HIV-1, the “Spread (WT) CIC95 (nM) (50% NHS)” value is 26 nM. Further, on HIV-1 RT enzyme (WT), the inhibition at 0.1 µM was found to be 75%.
Taken in the same sequence, the figures for `Cn1c(Cn2ccc(Cl)c(Oc3cc(Cl)cc(C#N)c3)c2=O)n[nH]c1=O` [Example 3-1, 3-Chloro-5-({4-chloro-1-[(4-methyl-5-oxo-4,5-dihydro-1H-1,2,4-triazol-3-yl)methyl]-2-oxo-1,2-dihydropyridin-3-yl}oxy)benzonitrile] were 15 nM and 75%.
In the case of `Cn1c(Cn2ccc(Br)c(Oc3cc(Cl)cc(C#N)c3)c2=O)n[nH]c1=O` [Example 4-1, 3-({4-Bromo-1-[(4-methyl-5-oxo-4,5-dihydro-1H-1,2,4-triazol-3-yl)methyl]-2-oxo-1,2-dihydropyridin-3-yl}oxy)-5-chlorobenzonitrile], in the assay with wild-type HIV-1, the “Spread (WT) CIC95 (nM) (50% NHS)” value came to 12 nM. Also, the inhibition at 0.1 µM on HIV-1 RT enzyme (WT) came out at 90%.
Taken in the same sequence, the figures for `Cn1c(Cn2ccc(C(C)(F)F)c(Oc3cc(Cl)cc(C#N)c3)c2=O)n[nH]c1=O` [Example 5-1, 3-Chloro-5-({4-(1,1-difluoroethyl)-1-[(4-methyl-5-oxo-4,5-dihydro-1H-1,2,4-triazol-3-yl)methyl]-2-oxo-1,2-dihydropyridin-3-yl}oxy)benzonitrile] were 10 nM and 75%.
`Cn1c(Cn2cc(Br)c(Cl)c(Oc3cc(Cl)cc(C#N)c3)c2=O)n[nH]c1=O` [Example 6-1, 3-({5-Bromo-4-chloro-1-[(4-methyl-5-oxo-4,5-dihydro-lH-l,2,4-triazol-3-yl)methyl]-2-oxo-1,2-dihydropyridin-3-yl}oxy)-5-chlorobenzonitrile]: the “Spread (WT) CIC95 (nM) (10% FBS)” value in the assay with wild-type HIV-1 was determined as 5.1 nM. Moreover, the inhibition at 0.1 µM on HIV-1 RT enzyme (WT) is 90%.
In the case of `Cn1c(Cn2cc(Br)c(C(F)(F)F)c(Oc3cc(Cl)cc(C#N)c3)c2=O)n[nH]c1=O` [Example 7-1, 3-({5-Bromo-1-[(4-methyl-5-oxo-4,5-dihydro-1H-1,2,4-triazol-3-yl)methyl]-2-oxo-4-(trifluoromethyl)-1,2-dihydropyridin-3-yl}oxy)-5-chlorobenzonitrile], in the assay on wild-type HIV-1, the “Spread (WT) CIC95 (nM) (50% NHS)” value was 23 nM. Also, the inhibition at 0.1 µM at HIV-1 RT enzyme (WT) worked out at 77%.
Consider `Cn1c(Cn2ccc(C(F)(F)F)c(Oc3cc(C#N)cc(C(F)F)c3)c2=O)n[nH]c1=O` [Example 8-1, 3-(Difluoromethyl)-5-({1-[(4-methyl-5-oxo-4,5-dihydro-1H-1,2,4-triazol-3-yl)methyl]-2-oxo-4-(trifluoromethyl)-1,2-dihydropyridin-3-yl}oxy)benzonitrile], for which, in the assay on wild-type HIV-1, the “Spread (WT) CIC95 (nM) (10% FBS)” value was 7.3 nM. Also, on HIV-1 RT enzyme (WT), the inhibition at 0.1 µM came out at 75%.

A word on the inhibition: it is the share of the control response that was lost under treatment.
